Data taken from paper PMC7083837 (Nature Communications, 2020).
pIC50: −log10 of the molar value. Where “and” joins values, the source holds several entries; their conditions need not be identical. Equal entries are not always repeated.

Legend:
[1] = target: T1, SERT WT (Homo sapiens, UniProt P31645); experiment: [3H]S-CIT competition (equilibrium) binding on COS-7 membranes
T1 construct: expressed in transfected cells; host or cells: COS-7

[2] = target: T2, SERT E494Q (Homo sapiens, UniProt P31645, E494Q); experiment: [3H]IMI dissociation rate assay; assay type: binding
T2 construct: expressed in transfected cells; host or cells: COS-7
T2 sequence (P31645 whole entry E494Q): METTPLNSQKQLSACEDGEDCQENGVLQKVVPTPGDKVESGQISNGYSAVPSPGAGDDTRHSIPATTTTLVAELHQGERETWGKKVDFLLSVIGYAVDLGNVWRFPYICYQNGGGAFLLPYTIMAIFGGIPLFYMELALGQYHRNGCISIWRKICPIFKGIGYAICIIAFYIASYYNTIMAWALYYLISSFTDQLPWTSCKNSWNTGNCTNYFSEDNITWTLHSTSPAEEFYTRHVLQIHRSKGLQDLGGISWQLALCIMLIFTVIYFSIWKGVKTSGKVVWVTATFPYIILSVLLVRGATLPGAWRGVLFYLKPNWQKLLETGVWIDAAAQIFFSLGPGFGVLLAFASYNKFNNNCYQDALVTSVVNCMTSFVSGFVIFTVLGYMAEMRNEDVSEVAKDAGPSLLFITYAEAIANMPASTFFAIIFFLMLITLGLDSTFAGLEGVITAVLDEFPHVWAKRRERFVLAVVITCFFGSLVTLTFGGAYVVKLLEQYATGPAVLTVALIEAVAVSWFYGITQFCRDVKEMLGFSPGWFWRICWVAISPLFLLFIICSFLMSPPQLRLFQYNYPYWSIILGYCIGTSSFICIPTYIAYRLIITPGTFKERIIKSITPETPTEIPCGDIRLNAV

[3] = target: T1, SERT WT; experiment: [3H]IMI competitive binding on COS-7 membranes
Experimental: [^3H]S-CIT and [^3H]IMI competitive binding experiments were performed on membrane preparations of COS-7 cells transiently transfected with SERT WT. Membrane aliquots were mixed with membrane buffer containing 5–10 nM of either [^3H]S-CIT or [^3H]IMI and Lu AF60097 in the indicated concentrations to a final volume of 300 µL. The binding experiments were incubated 1 h at room temperature and subsequently filtered, washed and counted as described under ‘[^3H]IMI and [^3H]S-CIT dissociation rate assay’. Non-specific binding was determined by adding 5 µM paroxetine.

[4] = test system: extracellular 5-HT levels in rat hippocampus; experiment: Microdialysis in ventral hippocampus of freely moving rats; assay type: in vivo; design: extracellular 5-HT level / AUC: unit not given here;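 on extracellular 5-HT level: percent of mean basal level in three fractions before perfusion start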

T1 sequence (P31645 whole entry): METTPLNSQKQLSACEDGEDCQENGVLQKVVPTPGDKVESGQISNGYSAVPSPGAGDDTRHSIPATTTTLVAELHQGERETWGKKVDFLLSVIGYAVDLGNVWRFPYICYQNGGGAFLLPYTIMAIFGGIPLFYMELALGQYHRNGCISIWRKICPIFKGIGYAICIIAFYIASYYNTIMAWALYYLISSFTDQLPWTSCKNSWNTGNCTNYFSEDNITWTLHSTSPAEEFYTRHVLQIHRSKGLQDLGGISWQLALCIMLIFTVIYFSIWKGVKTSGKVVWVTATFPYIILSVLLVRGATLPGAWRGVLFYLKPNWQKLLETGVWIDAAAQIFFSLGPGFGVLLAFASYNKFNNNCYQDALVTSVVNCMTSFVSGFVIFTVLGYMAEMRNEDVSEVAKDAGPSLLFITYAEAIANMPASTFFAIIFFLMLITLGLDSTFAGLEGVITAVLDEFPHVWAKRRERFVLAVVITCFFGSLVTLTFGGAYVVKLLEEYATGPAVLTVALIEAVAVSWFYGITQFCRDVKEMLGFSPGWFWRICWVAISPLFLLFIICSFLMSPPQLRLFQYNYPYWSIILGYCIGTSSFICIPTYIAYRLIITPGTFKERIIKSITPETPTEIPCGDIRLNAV

- pIC50 ([1]; COS-7 membranes, SERT WT, read-out: Inhibition of [^3H]S-CIT binding (IC50)): 6.57
- Displacement of [3H]S-CIT binding (normalized bound, Fig S6) ([1]; log[Lu AF60097] -4.9586): 0.02221 and 0.02599
- Displacement of [3H]S-CIT binding (normalized bound, Fig S6) ([1]; log[Lu AF60097] -6.4638): 0.4362 and 0.4819 and 0.2888
- Displacement of [3H]S-CIT binding (normalized bound, Fig S6) ([1]; log[Lu AF60097] -6.7648): 0.6201 and 0.6384 and 0.4362
- Displacement of [3H]S-CIT binding (normalized bound, Fig S6) ([1]; log[Lu AF60097] -7.0658): 0.7487 and 0.8379 and 0.6201
- Displacement of [3H]S-CIT binding (normalized bound, Fig S6) ([1]; log[Lu AF60097] -7.3668): 0.8096 and 1.0297 and 0.7487
- Displacement of [3H]S-CIT binding (normalized bound, Fig S6) ([1]; log[Lu AF60097] -7.6679): 0.9347 and 1.009 and 0.8096
- Displacement of [3H]S-CIT binding (normalized bound, Fig S6) ([1]; log[Lu AF60097] -7.8213): 0.9058
- Displacement of [3H]S-CIT binding (normalized bound, Fig S6) ([1]; log[Lu AF60097] -8.2985): 0.9777 and 0.9058
- Displacement of [3H]S-CIT binding (normalized bound, Fig S6) ([1]; log[Lu AF60097] -9): 0.999 and 0.9777
- ΔAP (mut/WT), change in allosteric potency relative to SERT WT ([2]; E494Q, [^3H]IMI dissociation): 5
- pIC50 ([2]; SERT E494Q, read-out: Allosteric potency inhibition of [^3H]IMI dissociation (IC50)): 6.77
- Displacement of [^3H]IMI in binding experiment ([3]; equilibrium binding, SERT WT membranes): not displaced
- Displacement of [3H]IMI binding (normalized bound, Fig S6) ([3]; log[Lu AF60097] -4.9586): 0.8037 and 0.8081 and 0.979
- Displacement of [3H]IMI binding (normalized bound, Fig S6) ([3]; log[Lu AF60097] -5.2596): 0.9221 and 1.029 and 1.04
- Displacement of [3H]IMI binding (normalized bound, Fig S6) ([3]; log[Lu AF60097] -5.5607): 1.05 and 0.9989 and 1.0302
- Displacement of [3H]IMI binding (normalized bound, Fig S6) ([3]; log[Lu AF60097] -5.8617): 1.118 and 1.161 and 1.01
- Displacement of [3H]IMI binding (normalized bound, Fig S6) ([3]; log[Lu AF60097] -6.1627): 1.173 and 1.156 and 0.9563
- Displacement of [3H]IMI binding (normalized bound, Fig S6) ([3]; log[Lu AF60097] -6.4638): 1.154 and 1.04 and 1.011
- Displacement of [3H]IMI binding (normalized bound, Fig S6) ([3]; log[Lu AF60097] -6.7648): 1.061 and 1.088 and 0.8905
- Displacement of [3H]IMI binding (normalized bound, Fig S6) ([3]; log[Lu AF60097] -7.0658): 1.098 and 0.9993 and 0.8339
- Displacement of [3H]IMI binding (normalized bound, Fig S6) ([3]; log[Lu AF60097] -7.3668): 1.049 and 0.9798
- Displacement of [3H]IMI binding (normalized bound, Fig S6) ([3]; log[Lu AF60097] -7.6679): 1.052 and 1.0159
SMILES: NC(=O)c1ccc2c(c1)CO[C@@]2(CCCN1CCC(c2ccc3ccc(=O)[nH]c3c2)CC1)c1ccc(F)cc1 [Lu AF60097, (S)-1-(4-fluorophenyl)-1-(3-(4-(2-oxo-1,2-dihydroquinolin-7-yl)piperidin-1-yl)propyl)-1,3-dihydroisobenzofuran-5-carboxamide]
- Maximum extracellular 5-HT level, % of basal level ([4]; 1 µl (250 nM) injected in ventral hippocampus): 602 ± 156%
- Hippocampal 5-HT level above saline ([4]; 1 µl of 250 nM injected locally, after 2 h): about 6 fold
- extracellular 5-HT level ([4]; Fig 6A, time 0): 99.15 and 92.9 and 84.7 and 127.51 and 96.31 and 90.57
- extracellular 5-HT level ([4]; Fig 6A, time -20): 99.13 and 103.53 and 109.41 and 104.22 and 103.69 and 101.06
- extracellular 5-HT level ([4]; Fig 6A, time -40, single animals): 101.72 and 103.57 and 105.89 and 68.26 and 100 and 108.37
- AUC ([4]; Fig 6B Inset, single animals): 160 and 33 and 22 and 96 and 107 and 114 and 155 and 78 and 140 and 79 and 75 and 81 and 29 and 143 and 77
- extracellular 5-HT level ([4]; Fig 6B, Time -40, single animals): 98.41 and 131.26 and 120.63 and 87.45 and 121.36 and 138.4 and 108.61 and 82.38 and 85.26 and 67.86 and 55.86 and 116.12
